Measured values as given in patent US4652638A, “3-O-acyl-4"-deoxydesmycosin derivatives” (Toyo Jozo Kabushiki Kaisha, priority 1983, dated 1987).
In brackets after ≈: the same amount, converted by molar mass. Where two headings read alike, the source gives them in different places.

What was measured:
Experiment in all cases: MIC (minimum inhibitory concentration)
Type in all cases: cell-based
[1] = tested on: Staphylococcus aureus ATCC 6538P; conditions: ATCC6538P
[2] = tested on: Staphylococcus aureus MS353
[3] = tested on: Staphylococcus aureus MS353 C36; conditions: MS353C36
[4] = tested on: Staphylococcus aureus MS353 A0*; conditions: * clinical isolate, macrolide-resistant bacteria A group
[5] = tested on: Staphylococcus aureus 0119*; conditions: Staphylococcus aureus
[6] = tested on: Staphylococcus aureus 0127*; conditions: Staphylococcus aureus
[7] = tested on: Staphylococcus epidermidis sp-al-1; conditions: SPAL1
[8] = tested on: Streptococcus pyogenes N.Y.5
[9] = tested on: Streptococcus pyogenes 1022*; conditions: Streptococcus pyogenes
[10] = tested on: Streptococcus faecalis 1501; conditions: Enterococcus faecalis
[11] = tested on: Streptococcus agalaactiae 1020
Sarcina lutea ATCC 9341 = conditions: Micrococcus luteus, ATCC9341; Sarcina lutea ATCC 9341; read-out: MIC
[12] = tested on: Micrococcus flavus ATCC 10240; conditions: ATCC10240
[13] = tested on: Corynebacterium diphtheriae P.Y.8
[14] = tested on: Bacillus subtilis ATCC 6633; conditions: ATCC6633
[15] = tested on: Escherichia coli NIHJ-JC2; conditions: NIHJJC2
Escherichia coli B = tested on: Escherichia coli B
[16] = tested on: Klebsiella pneumoniae ATCC 10031; conditions: ATCC10031
Salmonella typhosa H901 = conditions: Salmonella enterica, TYPHOSA
[17] = tested on: Salmonella enteritidis Gaertner; conditions: Salmonella enterica
[18] = tested on: Shigella flexineri type 3a; conditions: TYPE3A
Shigella sonnei E33 = tested on: Shigella sonnei E33
Proteus vulgaris OX19 = tested on: Proteus vulgaris OX19
Serratia marcescens = tested on: Serratia marcescens
[19] = tested on: Pseudomonas aeruginosa IAM 1095; conditions: IAM1095
[20] = Escherichia coli NIHJ-JC2, read-out: MIC
[21] = Escherichia coli B, read-out: MIC

Structure (SMILES) | MIC [1] [µg/mL] | MIC [2] [µg/mL] | MIC [3] [µg/mL] | MIC [4] [µg/mL] | MIC [5] [µg/mL] | MIC [6] [µg/mL] | MIC ([7]; Staphylococcus epidermidis) [µg/mL] | MIC [8] [µg/mL] | MIC [9] [µg/mL] | MIC [10]; 1501 [µg/mL] | MIC ([11]; Streptococcus, 1020) [µg/mL] | MIC (Sarcina lutea ATCC 9341) [µg/mL] | MIC ([12]; Micrococcus flavus) [µg/mL] | MIC [13] [µg/mL] | MIC ([14]; Bacillus subtilis) [µg/mL] | MIC [15, 20] [µg/mL] | MIC (Escherichia coli B; [21]) [µg/mL] | MIC (Salmonella typhosa H901) [µg/mL] | MIC [18] [µg/mL] | MIC (Shigella sonnei E33) [µg/mL] | also measured
CC[C@H]1OC(=O)[C@H](C)[C@@H](O[C@H]2C[C@@](C)(OC)[C@@H](O)[C@H](C)O2)[C@H](C)[C@@H](O[C@@H]2O[C@H](C)C[C@H](N(C)C)[C@H]2O)[C@](C)(O)C[C@@H](C)C(=O)[C@H](C)[C@@H](O)[C@]1(C)O [Erythromycin, reference compound] | 0.2 (≈ 0.273 µM) | 0.2 (≈ 0.273 µM) | > 100 | > 100 | > 100 | > 100 | 0.2 (≈ 0.273 µM) | ≤ 0.05 | > 100 | 0.2 (≈ 0.273 µM) | ≤ 0.05 | ≤ 0.05 | 0.1 (≈ 0.136 µM) | ≤ 0.05 | 0.1 (≈ 0.136 µM) | 100 (≈ 136 µM) | > 100 | 100 (≈ 136 µM) | 12.5 (≈ 17 µM) | 100 (≈ 136 µM) | MIC ([16]; Klebsiella pneumoniae): 6.3 µg/mL (≈ 8.58 µM); MIC ([17]; ENTERITIDIS): 100 µg/mL (≈ 136 µM); MIC (Proteus vulgaris OX19): 50 µg/mL (≈ 68.1 µM); MIC (Serratia marcescens): 100 µg/mL (≈ 136 µM); MIC ([19]; Pseudomonas aeruginosa): 100 µg/mL (≈ 136 µM)
CCC1OC(=O)CC(OC(=O)CC(C)C)C(C)C(OC2OC(C)C(O)C(N(C)C)C2O)C(CC=O)CC(C)C(=O)C=CC(C)=CC1COC1OC(C)CC(OC)C1OC (centres unmarked) [Example 4, 3-O-isovaleryl-4"-deoxydesmycosin] | 0.4 (≈ 0.476 µM) | 0.4 (≈ 0.476 µM) | 0.4 (≈ 0.476 µM) | > 100 | > 100 | > 100 | – | ≤ 0.05 | > 100 | – | – | ≤ 0.05 | – | – | – | > 100 | > 100 | > 100 | 50 (≈ 59.5 µM) | > 100 | MIC ([7]; Staphylococcus epidermidis sp-al-1, read-out: MIC): 0.1 µg/mL (≈ 0.119 µM); MIC ([10]; Streptococcus faecalis 1501, read-out: MIC): 0.4 µg/mL (≈ 0.476 µM); MIC ([11]; Streptococcus agalaactiae 1020, read-out: MIC): ≤ 0.05 µg/mL; MIC ([12]; Micrococcus flavus ATCC 10240, read-out: MIC): ≤ 0.05 µg/mL; MIC ([13]; read-out: MIC): ≤ 0.05 µg/mL; MIC ([14]; Bacillus subtilis ATCC 6633, read-out: MIC): 0.2 µg/mL (≈ 0.238 µM); MIC ([16]; Klebsiella pneumoniae ATCC 10031, read-out: MIC): 25 µg/mL (≈ 29.8 µM); MIC ([17]; Salmonella enteritidis Gaertner, read-out: MIC): > 100 µg/mL; MIC (Proteus vulgaris OX19; read-out: MIC): 50 µg/mL (≈ 59.5 µM); MIC (Serratia marcescens; read-out: MIC): > 100 µg/mL; MIC ([19]; Pseudomonas aeruginosa IAM 1095, read-out: MIC): > 100 µg/mL
CC[C@H]1OC(=O)C[C@@H](O)[C@H](C)[C@@H](O[C@@H]2O[C@H](C)[C@@H](O[C@H]3C[C@@](C)(O)[C@@H](O)[C@H](C)O3)[C@H](N(C)C)[C@H]2O)[C@@H](CC=O)C[C@@H](C)C(=O)/C=C/C(C)=C/[C@@H]1CO[C@@H]1O[C@H](C)[C@@H](O)[C@@H](OC)[C@H]1OC [Tylosin, reference compound] | – | 0.8 (≈ 0.873 µM) | 0.4 (≈ 0.437 µM) | > 100 | > 100 | > 100 | 0.4 (≈ 0.437 µM) | 0.1 (≈ 0.109 µM) | > 100 | 0.8 (≈ 0.873 µM) | 0.2 (≈ 0.218 µM) | ≤ 0.05 | ≤ 0.05 | ≤ 0.05 | 0.2 (≈ 0.218 µM) | – | – | > 100 | 50 (≈ 54.6 µM) | > 100 | MIC ([15]; Escherichia coli): > 100 µg/mL; MIC (Escherichia coli B; Escherichia coli): > 100 µg/mL; MIC ([16]; Klebsiella pneumoniae): 50 µg/mL (≈ 54.6 µM); MIC ([17]; ENTERITIDIS): > 100 µg/mL; MIC (Proteus vulgaris OX19): > 100 µg/mL; MIC (Serratia marcescens): > 100 µg/mL; MIC ([19]; Pseudomonas aeruginosa): > 100 µg/mL
